Measured values published in patent US5159069A, “Sulfated tannins and their salts” (Yamanouchi Pharmaceutical Co., Ltd., priority 1988, dated 1992).

Tests used:
[1] = system: HTLV-IIIB-infected MT-4 cells; assay: Inhibitory effect on expression of HIV-specific antigen (immunofluorescence); type: cell-based
Method: After drying the cells cultured in Experiment 1 on a slide glass, they were fixed with methanol for 3 minutes and treated with human anti-HIV-III positive serum (IF antibody titer×4096) which was diluted 1/1,000 time at 37° C. for 30 minutes. Thereafter, it was washed with phosphate-buffered saline (PBS) for 15 minutes and treated with an anti-human IgG conjugated with fluorescein-isothiocyanate at 37° C. for 30 minutes. It was again washed with PBS and then the number of fluorescent cells, more specifically expressed HIV-specific virus antigen proteins were determined with a fluorescence microscope. "%" is a ratio of the number of fluorescent ray emitting cells to the number of total cells.

[2] = system: MOLT-4 and MOLT-4/HIV HTLV-IIIB cells; assay: Inhibitory effect on giant cell formation by mixed cultivation of MOLT-4 and MOLT-4/HIV HTLV-IIIB cells; type: cell-based, human; conditions: 24 hours co-culture, co-culture control 18.5%
Method: This experiment was performed by the recently developed method of Yamamoto et al. (see Yamamoto et al., Virology, 1988, 164, p. 542; and J. Clinical Microbiology, 1988, 26, p. 1229).
MOLT-4 cells which are HTLV-I negative human T cell strain, and MOLT-4/HIVHT LV II IB cells which are persistently HIV-infected cells are separately cultured in a RPMI 1640 culture medium supplemented with 10% fetal calf serum to a cell density of 5×10^5 /ml respectively, these were mixed in a ratio of 1:1 and the drug was added thereto.
The mixed culture medium was cultured at 37° C. for 24 hours in a carbon dioxide incubator and the distribution of cell size was determined by a Cell Multisizer (available from Coulter Electronics, Ltd., Luton, England).
In Table IX, the rate of cell having a size of not less than 20 μm is expressed by "%". If MOLT-4 cells and MOLT-4/HIVHT LV II IB cells are separately cultured, the rates are 4.5 and 3.3% respectively, but it increased up to 18.5% when they are co-cultured. When tannic acid-S was added to the mixed culture medium in a concentration of 5 μg/ml, the rate was reduced to 8.2%.

[3] = system: HTLV-IIIB-infected MT-4 cells; assay: Inhibitory effect of drugs on HIV-induced cell damage (trypan blue dye exclusion); type: cell-based
Method: In this experiment, there were used human MT4 cells, a human T4-positive cell line carrying adult T-cell leukemia causative virus, HTLV-1 (Gann Monogr.,1982, Vol. 28, pp. 219 -228) and HTLF-IIIB which is one of the HIV strains.
(§1) HTLV-IIIB-infected MT-4 cells were inoculated on RPMI 1640 culture mediums containing 10% heat-inactivated fetal calf serum, 100 IU/ml of penicillin and 100 μg/ml of streptomycin, to which tannic acid-S had been added in a variety of concentrations, in a cell number of 300,000/ml and were cultured at 37° C. in a carbon dioxide incubator. After the cultivation for three days, one half of the culture medium was withdrawn and the survival rate and the viable count (X 10^4 /ml) of the MT-4 cells in the medium were determined by a trypan blue dye exclusion test. To the remaining cultured cells, an equivalent amount of RPMI 1640 culture medium each containing the same amount of the drugs were added, the cultivation was further continued for additional 3 days and likewise the survival rate and the viable count were determined.

[4] = system: HTLV-IIIB-non-infected MT-4 cells; assay: Toxicity: influence on the proliferation of T cells; type: cell-based, human
Method: as §1
As in Experiment 1, there was observed the influence of the compounds (drugs) of the present invention on the proliferation of HTLV-IIIB-non-infected MT-4 cells. The results thus observed are listed on the following Tables XI to XIV. The numerical values in these Tables mean viable count (X 10^4 /ml) and those in parentheses mean survival rates.

[5] = Stability of powder and aqueous solution; conditions: powder state and aqueous solution
[6] = system: avian myeloblastosis virus RTase; type: biochemical; conditions: 37° C., 40 minutes
Method: According to the method disclosed in Journal of Biological Chemistry, 1987, 262, p. 2187, the RTase inhibitory effect of the compounds of this invention is determined as follows:
More specifically, the compound of the present invention was added, in various amount, to a reaction solution which comprised 80 mM of Tris buffer solution (pH 8), 6 mM of magnesium chloride, 80 mM of potassium chloride, 10 mM of dithiothreitol, 20 μg/ml of polyadenylic acid, 0.02 μg/ml of oligodeoxy thymidine, 20 μM of tritium-labeled deoxythymidine-triphosphate and avian myeloblastosis virus RTase so that the total volume of the resultant solution was equal to 100 μl. After the reaction solution was incubated at 37° C. for 40 minutes, 100 μl of an ice-cooled 10% trichloroacetic acid solution was added to the solution to stop the reaction.
The reaction solution was filtered through a glass filter (Whatmann GF/C) and washed with a 10% trichloroacetic acid solution and then with ethanol. Thereafter, the glass filter was dried and examined by liquid scintillation counter.

[7] = drug 50 μg/ml, culture period 3 days
[8] = drug 50 μg/ml, culture period 6 days
[9] = drug 100 μg/ml, culture period 3 days
[10] = drug 100 μg/ml, culture period 6 days
[11] = drug 200 μg/ml, culture period 3 days
[12] = drug 200 μg/ml, culture period 6 days
[13] = drug 400 μg/ml, culture period 3 days
[14] = drug 400 μg/ml, culture period 6 days

**Q.** For “sodium salt of epicatechin sulfate [Epicatechin-S]”, which “Ratio of fluorescent ray emitting cells to total cells” value (“Ratio” for short) [1, 7] is on record?
**A.** < 1%

**Q.** What about the “Ratio” value [1, 8] of the same substance?
**A.** 90%

**Q.** And the “Ratio” value [1, 9]?
**A.** < 1%

**Q.** What about the “Ratio” value [1, 10] of the same substance?
**A.** < 1%

**Q.** What about the “Ratio” value [1, 11] of the same substance?
**A.** < 1%

**Q.** And the “Ratio” value [1, 12]?
**A.** < 1%

**Q.** What about the “Ratio” value [1, 13] of the same substance?
**A.** < 1%

**Q.** And the “Ratio” value [1, 14]?
**A.** < 1%

**Q.** And the “Rate of Giant Cell (cells of size not less than 20 μm)” value ([2]; drug 25 μg/ml)?
**A.** 14.2%

**Q.** And the “Rate of Giant Cell (cells of size not less than 20 μm)” value ([2]; drug 50 μg/ml)?
**A.** 14.0%

**Q.** And the “Rate of Giant Cell (cells of size not less than 20 μm)” value ([2]; drug 100 μg/ml)?
**A.** 15.1%

**Q.** And the “Rate of Giant Cell (cells of size not less than 20 μm)” value ([2]; drug 200 μg/ml)?
**A.** 13.9%

**Q.** And the Viable count [3, 7]?
**A.** 940000 mL⁻¹

**Q.** And the survival rate [3, 7]?
**A.** 95%

**Q.** And the Viable count [3, 8]?
**A.** 450000 mL⁻¹

**Q.** What about the survival rate [3, 8] of the same substance?
**A.** 63%

**Q.** What about the Viable count [3, 9] of the same substance?
**A.** 990000 mL⁻¹

**Q.** And the survival rate [3, 9]?
**A.** 87%

**Q.** And the Viable count [3, 10]?
**A.** 1.1e+06 mL⁻¹

**Q.** And the survival rate [3, 10]?
**A.** 92%

**Q.** And the Viable count [3, 11]?
**A.** 890000 mL⁻¹

**Q.** And the survival rate [3, 11]?
**A.** 86%

**Q.** And the Viable count [3, 12]?
**A.** 1.22e+06 mL⁻¹

**Q.** What about the survival rate [3, 12] of the same substance?
**A.** 91%

**Q.** What about the Viable count [3, 13] of the same substance?
**A.** 910000 mL⁻¹

**Q.** What about the survival rate [3, 13] of the same substance?
**A.** 85%

**Q.** And the Viable count [3, 14]?
**A.** 1.33e+06 mL⁻¹

**Q.** And the survival rate [3, 14]?
**A.** 91%

**Q.** What about the Viable count [4, 7] of the same substance?
**A.** 1.14e+06 mL⁻¹

**Q.** And the survival rate [4, 7]?
**A.** 91

**Q.** And the Viable count [4, 8]?
**A.** 1.38e+06 mL⁻¹

**Q.** And the survival rate [4, 8]?
**A.** 85

**Q.** What about the Viable count [4, 9] of the same substance?
**A.** 1.1e+06 mL⁻¹

**Q.** And the survival rate [4, 9]?
**A.** 86

**Q.** And the Viable count [4, 10]?
**A.** 1.47e+06 mL⁻¹

**Q.** And the survival rate [4, 10]?
**A.** 93

**Q.** What about the Viable count [4, 11] of the same substance?
**A.** 1.11e+06 mL⁻¹

**Q.** And the survival rate [4, 11]?
**A.** 83

**Q.** And the Viable count [4, 12]?
**A.** 1.33e+06 mL⁻¹

**Q.** What about the survival rate [4, 12] of the same substance?
**A.** 92

**Q.** What about the Viable count [4, 13] of the same substance?
**A.** 1.18e+06 mL⁻¹

**Q.** What about the survival rate [4, 13] of the same substance?
**A.** 86

**Q.** And the Viable count [4, 14]?
**A.** 1.37e+06 mL⁻¹

**Q.** And the survival rate [4, 14]?
**A.** 92

**Q.** With “sodium salt of sulfated (-)-epigallocathechin-3-gallate [Epigallocatechin gallate-S]” as the substance, how does the Stability [5] read?
**A.** stable in powder state and in the form of aqueous solutions

**Q.** And the “Ratio” value [1, 7]?
**A.** < 1%

**Q.** What about the “Ratio” value [1, 8] of the same substance?
**A.** < 1%

**Q.** And the “Ratio” value [1, 9]?
**A.** < 1%

**Q.** And the “Ratio” value [1, 10]?
**A.** < 1%

**Q.** And the “Ratio” value [1, 11]?
**A.** < 1%

**Q.** What about the “Ratio” value [1, 12] of the same substance?
**A.** < 1%

**Q.** What about the “Ratio” value [1, 13] of the same substance?
**A.** < 1%

**Q.** And the “Ratio” value [1, 14]?
**A.** < 1%

**Q.** And the “Rate of Giant Cell (cells of size not less than 20 μm)” value ([2]; drug 25 μg/ml)?
**A.** 13.8%

**Q.** What about the “Rate of Giant Cell (cells of size not less than 20 μm)” value ([2]; drug 50 μg/ml) of the same substance?
**A.** 17.5%

**Q.** What about the “Rate of Giant Cell (cells of size not less than 20 μm)” value ([2]; drug 100 μg/ml) of the same substance?
**A.** 5.6%

**Q.** And the “Rate of Giant Cell (cells of size not less than 20 μm)” value ([2]; drug 200 μg/ml)?
**A.** 0.4%

**Q.** And the Viable count [3, 7]?
**A.** 830000 mL⁻¹

**Q.** What about the survival rate [3, 7] of the same substance?
**A.** 85%

**Q.** And the Viable count [3, 8]?
**A.** 1.3e+06 mL⁻¹

**Q.** And the survival rate [3, 8]?
**A.** 92%

**Q.** What about the Viable count [3, 9] of the same substance?
**A.** 840000 mL⁻¹

**Q.** And the survival rate [3, 9]?
**A.** 83%

**Q.** What about the Viable count [3, 10] of the same substance?
**A.** 1.25e+06 mL⁻¹

**Q.** What about the survival rate [3, 10] of the same substance?
**A.** 95%

**Q.** What about the Viable count [3, 11] of the same substance?
**A.** 810000 mL⁻¹

**Q.** And the survival rate [3, 11]?
**A.** 89%

**Q.** What about the Viable count [3, 12] of the same substance?
**A.** 750000 mL⁻¹

**Q.** And the survival rate [3, 12]?
**A.** 87%

**Q.** What about the Viable count [3, 13] of the same substance?
**A.** 720000 mL⁻¹

**Q.** What about the survival rate [3, 13] of the same substance?
**A.** 82%

**Q.** What about the Viable count [3, 14] of the same substance?
**A.** 500000 mL⁻¹

**Q.** And the survival rate [3, 14]?
**A.** 86%

**Q.** And the Viable count [4, 7]?
**A.** 1.06e+06 mL⁻¹

**Q.** And the survival rate [4, 7]?
**A.** 88

**Q.** And the Viable count [4, 8]?
**A.** 400000 mL⁻¹

**Q.** And the survival rate [4, 8]?
**A.** 92

**Q.** And the Viable count [4, 9]?
**A.** 1.14e+06 mL⁻¹

**Q.** What about the survival rate [4, 9] of the same substance?
**A.** 85

**Q.** And the Viable count [4, 10]?
**A.** 370000 mL⁻¹

**Q.** What about the survival rate [4, 10] of the same substance?
**A.** 91

**Q.** And the Viable count [4, 11]?
**A.** 900000 mL⁻¹

**Q.** What about the survival rate [4, 11] of the same substance?
**A.** 91

**Q.** What about the Viable count [4, 12] of the same substance?
**A.** 950000 mL⁻¹

**Q.** What about the survival rate [4, 12] of the same substance?
**A.** 92

**Q.** And the Viable count [4, 13]?
**A.** 960000 mL⁻¹

**Q.** And the survival rate [4, 13]?
**A.** 89

**Q.** And the Viable count [4, 14]?
**A.** 530000 mL⁻¹

**Q.** What about the survival rate [4, 14] of the same substance?
**A.** 95

**Q.** With “sodium salt of sulfuric acid ester of 1,2,3,4,6-penta-O-galloyl-β-D-glucose [Example 7]” as the substance, how does the “RTase Inhibitory Effect (IC50)” value [6] read?
**A.** 0.45 µg/mL
